Measurements from article PMC2783692 (Analytical biochemistry, 2009).

How the values were obtained:
[1] = target: cannabinoid (CB1) receptor; test: PWR ligand binding to native rat trigeminal ganglion membrane fragments; settings: Figure 4, negative spectral shifts
chromatophore membranes = test: PWR ligand binding to deposited chromatophore membrane fragments; set-up: species or system Rhodopseudomonas sphaeroides
[2] = PWR ligand binding to bare sensor surface; settings: bare sensor versus chromatophore membrane fragments

CCCCCCC(C)(C)c1ccc([C@@H]2C[C@H](O)CC[C@H]2CCCO)c(O)c1 [CP 55,940]
KD values compared with radioligand binding and lipid bilayer PWR studies [1]: excellent agreement

Cc1c(C(=O)c2cccc3ccccc23)c2cccc3c2n1[C@H](CN1CCOCC1)CO3 [WIN 55,212–2]
KD values compared with radioligand binding and lipid bilayer PWR studies [1]: excellent agreement

bovine serum albumin: control protein replacing cyt c2
changes in PWR spectral position (binding) (chromatophore membranes; control protein replacing cyt c2, up to 100 μM protein): did not observe any measurable changes

B1: cyt c2: Reduced Rhodobacter capsulatus cytochrome (cyt) c2, isolated and purified (protein, UniProt P00094 22-137, looked up)
Cytochrome c2: GDAAKGEKEFNKCKTCHSIIAPDGTEIVKGAKTGPNLYGVVGRTAGTYPEFKYKDSIVALGASGFAWTEEDIATYVKDPGAFLKEKLDDKKAKTGMAFKLAKGGEDVAAYLASVVK
modifications: reduced
binding weaker on bare sensor than on chromatophore fragments [2]: approximately 10 fold
Kd (chromatophore membranes; read-out: apparent binding constant (KD), PWR, reduced cyt c2, hyperbolic fit, minimum of three separate experiments): 2500 nM
